Measured values reported in patent publication US20130237478A1, “COMPOSITIONS AND METHODS FOR TREATMENT OF PERIPHERAL VASCULAR DISEASE” (TARIX PHARMACEUTICALS LTD., priority 2012, published 2013).

Key:
[1] = Body weight of mice in hind limb ischemia studies; assay type: in vivo, Balb/c mice; details: Example 1; 500 μg/kg SC daily; throughout the study (49 days)
Experimental: Body weight of animals was measured before the surgery and once weekly thereafter.
The model and procedures used for this example is the same as for those in Examples 1 and 2, unless otherwise specified.

[2] = tested on: Transient middle cerebral artery occlusion (tMCAO); assay: Body swing test after tMCAO stroke; assay type: in vivo, rats; details: 50 μg/kg by Alzet pump
Experimental: (§1) For the purposes of this example, Transient middle cerebral artery occlusion (tMCAO) procedure Day is defined as “Day 1” in this study. On the day of surgery anesthesia were induced with 4% isoflurane in a mixture of 70% N2O and 30% O2 and maintained with 1.5-2% isoflurane.
(§2) The tMCAO procedures were performed according to the method described R. Schmid-Elsaesser et al. Briefly, the right CCA (Common Carotid Artery) was exposed through a midline neck incision and carefully dissected free from surrounding nerves and fascia—from its bifurcation to the base of the skull. The occipital artery branches of the ECA (External Carotid Artery) were then isolated, and these branches were dissected and coagulated. The ECA was dissected further distally and coagulated along with the terminal lingual and maxillary artery branches, which was then divided. The ICA (Internal Carotid Artery) was isolated and carefully separated from the adjacent vagus nerve, and the pterygopalatine artery was ligated close to its origin with a 5-0 nylon suture (SMI, Belgium). Next, a 4-0 silk suture was tied loosely around the mobilized ECA stump, and a 4 cm length of 4-0 monofilament nylon suture (the tip of the suture was blunted by using a flame, and the suture was coated with polylysine, prior to insertion) was inserted through the proximal ECA into the ICA and thence into the circle of Willis, effectively occluding the MCA. The surgical wound was closed and the animals were returned to their cages to recover from anesthesia. One hour and a half after occlusion rats were re-anesthetized, the monofilament was withdrawn to allow reperfusion, the surgical wound was closed and rats were returned to their cages.
Animals were subjected to a modified Modified Neurological Rating Scale (mNRS) at 24 hours post reperfusion. Only animals with an overall score of ≧10 were included in this study. Animals were allocated into the test groups, according to the mNRS results on day 2, in order to have similar distribution of rats performance between groups. Starting on day 2, 24 hours post-surgery, animals in groups 4, 5 and 7 were implanted subcutaneously with an osmotic Alzet pump and treated with either 500 μg/kg TXA127, 500 μg/kg PanCyte, or 50 μg/kg Linear PanCyte. Animals in groups 2, 3 and 6 received 500 μg/kg or 1,000 μg/kg TXA127 or 500 μg/kg PanCyte, administered subcutaneously via daily injection. Animals in group 1 were treated with a daily subcutaneous injection of a PBS (vehicle).
Each rat was held approximately one inch from the base of its tail. It was then elevated to an inch above a surface of a table. The rat was held in the vertical axis, defined as no more than 10° to either the left or the right side. A swing was recorded whenever the rat moves its head out of the vertical axis to either side. Before attempting another swing, the rat must return to the vertical position for the next swing to be counted. Twenty (20) total swings were counted. A normal rat typically has an equal number of swings to either side. Following focal ischemia, the rat tends to swing to the contralateral side (left side in this case). Body swing scores are expressed as a percentage of […] over total swings.

[3] = tested on: Transient middle cerebral artery occlusion (tMCAO); assay: Stepping test (forelimb akinesia) after tMCAO stroke; assay type: in vivo, rats
Experimental: as §1
as §2, with “One hour and a half after occlusion rats were re-anesthetized, the monofilament was withdrawn to allow reperfusion, the surgical wound was closed and rats were returned to their cages.” left out
Animals were tested for forelimb akinesia in a stepping test (ST). The animal was held with its hind limbs fixed with one hand and the forelimb not to be monitored with the other, while the unrestrained fore-paw touches the table. The number of adjusting steps are counted while the animal is moved sideways along the table surface (85 cm in approximately five seconds), in the forehand & backhand direction for both forelimbs. […]

[4] = tested on: Transient middle cerebral artery occlusion (tMCAO); assay: tMCAO stroke model, overall comparison of results; assay type: in vivo, rats; details: Linear PanCyte dose at least ten times lower than PanCyte
Source text: Without wishing to be held to a particular theory, it is possible that angiotensin-(1-7) peptides or functional equivalents, analogs or derivatives, and/or angiotensin-(1-7) receptor agonists such as TXA127, PanCyte and Linear PanCyte act to stimulate blood flow and tissue repair through angiogenesis. Such a mode of action would be extremely beneficial in a critical limb ischemia scenario since these conditions have deprivation of blood supply as a major source of pathology.
as §1
(§3) The tMCAO procedures were performed according to the method described R. Schmid-Elsaesser et al. Briefly, the right CCA (Common Carotid Artery) was exposed through a midline neck incision and carefully dissected free from surrounding nerves and fascia—from its bifurcation to the base of the skull. The occipital artery branches of the ECA (External Carotid Artery) were then isolated, and these branches were dissected and coagulated. The ECA was dissected further distally and coagulated along with the terminal lingual and maxillary artery branches, which was then divided. […]

[5] = tested on: Transient middle cerebral artery occlusion (tMCAO); assay: Forelimb placement test after tMCAO stroke; assay type: in vivo, rats; details: 50 μg/kg by Alzet pump; particularly on Days 21 and 35
Experimental: as §1
as §3, with “divided. The ICA (Internal Carotid Artery) was isolated and carefully separated from the adjacent vagus nerve, and the pterygopalatine artery was ligated close to its origin with a 5-0 nylon suture (SMI, Belgium).” for “divided.”
For the forelimb-placing test, the rat was held close to a tabletop and the rat's ability to place the forelimb on the tabletop in response to whisker, visual, tactile, or proprioceptive stimulation was scored (0=normal, 12=maximally impaired). […]

Row | Compound | body weight vs vehicle [1] | body swing performance ([2]; by Day 21) | body swing performance vs vehicle ([2]; by Day 28) | stepping test results compared with TXA127 or PanCyte ([3]; 50 μg/kg by Alzet pump) | stepping test performance vs vehicle ([3]; all experimental conditions (Table 22), by Day 28 post-surgery) | results in stroke model compared with PanCyte [4] | forelimb placement performance compared with other groups [5]
1 | CC[C@H](C)[C@H](NC(=O)[C@H](Cc1ccc(O)cc1)NC(=O)[C@@H](NC(=O)[C@H](CCCNC(=N)N)NC(=O)[C@@H](N)CC(=O)O)C(C)C)C(=O)N[C@@H](Cc1c[nH]cn1)C(=O)N1CCC[C@H]1C(=O)O [TXA127, Asp^1-Arg^2-Val^3-Tyr^4-Ile^5-His^6-Pro^7 (SEQ ID NO: 1)] | no statistically significant differences |  |  |  |  |  | 
2 | Asp^1-Arg^2-Val^3-Ser^4-Ile^5-His^6-Cys^7 (SEQ ID NO:5) (DRVSIHC) [Linear PanCyte] |  | showed improvement | significant improvement in performance | substantially equivalent to ten times as much TXA127 or PanCyte | significantly improved the performance | at least as impressive as PanCyte and in many cases even more impressive results | best performance
